IC50 data for 13 compounds are collected here from patent US9975888B2, “Aryl linked imidazole and triazole derivatives and methods of use thereof for improving the pharmacokinetics of a drug” (MERCK SHARP & DOHME CORP., priority 2013, dated 2018).

Where two headings read alike, the source gives them in different places.

What all share (type): biochemical
In one assay the target is T1, CYP2C19 (Homo sapiens, UniProt P33261).
T1 construct: 0.1 mg/mL protein human liver microsomes (BD Gentest); tissue BD Gentest; host or cells: human liver microsomes
T1 sequence (P33261 whole entry): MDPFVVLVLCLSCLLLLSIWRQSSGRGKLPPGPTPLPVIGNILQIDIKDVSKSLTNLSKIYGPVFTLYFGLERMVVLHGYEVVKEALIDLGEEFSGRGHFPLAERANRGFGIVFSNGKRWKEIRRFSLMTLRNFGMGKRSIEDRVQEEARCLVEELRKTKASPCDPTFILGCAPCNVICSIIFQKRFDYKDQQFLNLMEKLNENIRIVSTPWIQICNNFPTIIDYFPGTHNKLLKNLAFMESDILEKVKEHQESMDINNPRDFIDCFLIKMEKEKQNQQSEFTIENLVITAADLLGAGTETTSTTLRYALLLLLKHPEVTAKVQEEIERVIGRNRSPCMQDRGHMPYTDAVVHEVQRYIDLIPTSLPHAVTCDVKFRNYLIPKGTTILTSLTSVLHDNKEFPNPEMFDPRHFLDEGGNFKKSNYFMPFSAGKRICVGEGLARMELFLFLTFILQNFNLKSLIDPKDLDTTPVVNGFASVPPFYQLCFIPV
Kind of assay: Cocktail assay for CYPs, mephenytoin 4′-hydroxylation (CYP2C19), human liver microsomes. Conditions: 0.1 mg/mL human liver microsomes, 10 min at 37° C. Summed up: (§1)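 Pooled human liver microsomes (0.1 mg/mL) with probe cocktail incl. 5 μM diclofenac (CYP2C9) and 30 μM mephenytoin (CYP2C19), 1 mM NADPH, pH 7.4 phosphate buffer, 10 min at 37° C. Metabolites quantified by LC/MS/MS against internal standard; % inhibition versus no-inhibitor control, IC50 by non-linear regression.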

For assay [1], the target named is T2, CYP3A4 (Homo sapiens, UniProt P08684). Briefly: IC50 vs CYP3A by inhibition of lopinavir metabolism in human liver microsomes. To be noted: 1.5 μM lopinavir, 0.01 mg/mL human liver microsomes, 8 min at 37° C.; read-out: CYP IC50 (nM) 3A4 (LPV). Further details: 0.01 mg/mL protein human liver microsomes (BD Gentest); tissue BD Gentest; host or cells: human liver microsomes. Summed up: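 Human liver microsomes (0.01 mg/mL) with 1.5 μM lopinavir, 1 mM NADPH, 3.3 mM MgCl2 in 100 mM potassium phosphate pH 7.4, 8 min at 37 °C, six compound concentrations. Summed M2/M3/M4 hydroxy metabolites quantified by LC/MS/MS against tolbutamide; % inhibition normalised between no-inhibitor and 5 μM ketoconazole controls, IC50 by non-linear regression.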
Target sequence in this assay (P08684 2-503): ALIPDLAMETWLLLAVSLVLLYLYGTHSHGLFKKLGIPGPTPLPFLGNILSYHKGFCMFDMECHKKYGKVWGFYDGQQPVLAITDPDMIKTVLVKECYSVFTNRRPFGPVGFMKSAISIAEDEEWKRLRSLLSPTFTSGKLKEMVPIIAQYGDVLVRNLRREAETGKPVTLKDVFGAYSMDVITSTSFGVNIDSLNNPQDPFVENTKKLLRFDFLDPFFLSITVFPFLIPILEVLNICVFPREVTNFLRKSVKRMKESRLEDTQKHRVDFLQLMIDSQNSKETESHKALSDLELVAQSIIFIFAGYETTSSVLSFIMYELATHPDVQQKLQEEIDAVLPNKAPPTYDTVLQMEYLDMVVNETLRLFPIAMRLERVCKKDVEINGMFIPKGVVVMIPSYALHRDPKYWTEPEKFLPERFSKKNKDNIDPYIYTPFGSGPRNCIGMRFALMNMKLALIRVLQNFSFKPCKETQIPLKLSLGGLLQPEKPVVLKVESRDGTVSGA
(In general: Liver microsomes are vesicles of endoplasmic reticulum, rich in cytochrome P450 enzymes.)

In a further assay the target is T3, CYP2C9 (Homo sapiens, UniProt P11712).
T3 construct: 0.1 mg/mL protein human liver microsomes (BD Gentest); tissue BD Gentest; host or cells: human liver microsomes
T3 sequence (P11712 whole entry): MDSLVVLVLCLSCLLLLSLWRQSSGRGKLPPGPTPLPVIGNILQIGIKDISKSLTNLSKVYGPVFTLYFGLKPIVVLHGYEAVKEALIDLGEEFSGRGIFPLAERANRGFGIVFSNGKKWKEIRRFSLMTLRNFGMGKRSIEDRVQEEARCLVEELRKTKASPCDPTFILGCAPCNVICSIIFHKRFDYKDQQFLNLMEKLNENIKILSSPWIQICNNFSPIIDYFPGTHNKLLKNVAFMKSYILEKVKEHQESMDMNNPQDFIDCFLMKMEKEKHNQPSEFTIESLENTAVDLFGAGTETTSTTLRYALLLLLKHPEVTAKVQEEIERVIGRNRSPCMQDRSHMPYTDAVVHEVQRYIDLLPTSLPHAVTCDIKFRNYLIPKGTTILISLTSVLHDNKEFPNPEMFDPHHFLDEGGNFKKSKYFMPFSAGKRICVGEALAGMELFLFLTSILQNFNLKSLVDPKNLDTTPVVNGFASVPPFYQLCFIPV
Kind of assay: Cocktail assay for CYPs, diclofenac 4′-hydroxylation (CYP2C9), human liver microsomes. Conditions: 0.1 mg/mL human liver microsomes, 10 min at 37° C. Summed up:
as §1

Another assay deals with T4, CYP1A2 (Homo sapiens, UniProt P05177).
T4 construct: 0.1 mg/mL protein human liver microsomes (BD Gentest); tissue BD Gentest; host or cells: human liver microsomes
T4 sequence (P05177 1-516): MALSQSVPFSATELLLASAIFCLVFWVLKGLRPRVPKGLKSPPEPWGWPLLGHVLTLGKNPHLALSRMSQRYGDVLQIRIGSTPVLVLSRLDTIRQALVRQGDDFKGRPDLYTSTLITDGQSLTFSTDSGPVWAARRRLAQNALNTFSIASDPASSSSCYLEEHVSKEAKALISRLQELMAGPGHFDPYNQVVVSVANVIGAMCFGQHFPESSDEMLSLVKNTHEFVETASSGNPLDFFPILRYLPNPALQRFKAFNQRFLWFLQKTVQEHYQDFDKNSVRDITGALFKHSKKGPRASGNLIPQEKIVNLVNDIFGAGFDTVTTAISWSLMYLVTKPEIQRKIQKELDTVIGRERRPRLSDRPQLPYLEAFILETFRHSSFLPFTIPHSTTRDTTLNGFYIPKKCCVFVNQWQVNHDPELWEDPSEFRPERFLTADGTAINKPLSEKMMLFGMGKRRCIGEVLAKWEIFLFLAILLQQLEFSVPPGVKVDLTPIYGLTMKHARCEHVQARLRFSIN
Briefly: Cocktail assay for CYPs, phenacetin O-deethylation (CYP1A2), human liver microsomes. To be noted: 10 μM phenacetin, 0.1 mg/mL human liver microsomes, 10 min at 37° C.; read-out: CYP IC50 (nM) 1A2. Summed up: (§2)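 Pooled human liver microsomes (0.1 mg/mL) with a probe cocktail of 10 μM phenacetin, 5 μM dextromethorphan and 2 μM midazolam plus NADPH, pH 7.4, 10 min at 37° C. Each metabolite was quantified by LC/MS/MS against a tolbutamide internal standard. IC50 came from % inhibition at 6 concentrations (e.g. 0.0032–10 μM) by non-linear regression.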

The target in assay [2] is T2, CYP3A4. Kind of assay: Cocktail assay for CYPs, midazolam 1′-hydroxylation (CYP3A4), human liver microsomes. Also noted: 0.1 mg/mL protein human liver microsomes (BD Gentest); tissue BD Gentest; host or cells: human liver microsomes. To be noted: 2 μM midazolam, 0.1 mg/mL human liver microsomes, 10 min at 37° C.; read-out: CYP IC50 (nM) 3A4 (MDZ). Summed up: as §2
Target sequence in this assay (P08684 whole entry): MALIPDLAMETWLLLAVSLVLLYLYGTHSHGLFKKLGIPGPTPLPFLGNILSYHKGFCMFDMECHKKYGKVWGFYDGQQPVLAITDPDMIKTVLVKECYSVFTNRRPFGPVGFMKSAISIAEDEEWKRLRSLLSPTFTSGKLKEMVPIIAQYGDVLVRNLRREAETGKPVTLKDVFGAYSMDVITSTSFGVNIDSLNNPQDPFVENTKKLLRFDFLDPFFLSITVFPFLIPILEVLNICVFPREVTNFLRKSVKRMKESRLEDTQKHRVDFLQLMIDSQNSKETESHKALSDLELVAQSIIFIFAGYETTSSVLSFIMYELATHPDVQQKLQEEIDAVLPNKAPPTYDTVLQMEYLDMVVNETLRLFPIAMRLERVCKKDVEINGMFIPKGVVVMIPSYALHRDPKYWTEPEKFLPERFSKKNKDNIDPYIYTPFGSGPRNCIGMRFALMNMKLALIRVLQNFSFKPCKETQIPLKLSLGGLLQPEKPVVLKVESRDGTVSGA
Another assay addresses T5, CYP2D6 (Homo sapiens, UniProt P10635).
T5 construct: 0.1 mg/mL protein human liver microsomes (BD Gentest); tissue BD Gentest; host or cells: human liver microsomes
Kind of assay: Cocktail assay for CYPs, dextromethorphan O-demethylation (CYP2D6), human liver microsomes. Conditions: 5 μM dextromethorphan, 0.1 mg/mL human liver microsomes, 10 min at 37° C.; read-out: CYP IC50 (nM) 2D6. Summed up:
as §2

Setting [3] is: 30 μM mephenytoin, read-out: CYP IC50 (nM) 2C19.
Setting [4] is: 5 μM diclofenac, read-out: CYP IC50 (nM) 2C9.

T5 sequence (P10635 whole entry): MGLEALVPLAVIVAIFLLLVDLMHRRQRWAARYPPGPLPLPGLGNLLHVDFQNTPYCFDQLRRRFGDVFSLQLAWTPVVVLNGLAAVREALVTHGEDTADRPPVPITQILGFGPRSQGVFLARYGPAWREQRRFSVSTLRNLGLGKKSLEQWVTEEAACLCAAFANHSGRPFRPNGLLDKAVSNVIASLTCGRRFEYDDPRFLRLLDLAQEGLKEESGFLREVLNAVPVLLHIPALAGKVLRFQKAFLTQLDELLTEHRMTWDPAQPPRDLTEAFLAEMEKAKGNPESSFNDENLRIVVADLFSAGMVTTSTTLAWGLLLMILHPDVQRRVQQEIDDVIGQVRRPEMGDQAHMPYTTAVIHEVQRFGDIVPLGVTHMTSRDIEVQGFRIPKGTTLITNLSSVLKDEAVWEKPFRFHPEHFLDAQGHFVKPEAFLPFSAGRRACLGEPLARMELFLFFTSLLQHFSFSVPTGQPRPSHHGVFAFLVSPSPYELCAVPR

One may read the IC50 as the concentration that gives 50% inhibition. Turning to `O=S(=O)(NCc1ccccc1-c1cncn1CCc1ccc(F)cc1)c1cnc(N2CCN3C[C@H](O)C[C@H]3C2)s1` [Compound 19, N-(2-(1-(4-fluorophenethyl)-1H-imidazol-5-yl)benzyl)-2-((7R,8aS)-7-hydroxyhexahydropyrrolo[1,2-a]pyrazin-2 (1H)-yl)thiazole-5-sulfonamide], the IC50 at CYP2C19 (setting [3]) was more than 10000 nM; on CYP3A4 [1], 16.4 nM; on CYP2C9 (setting [4]), 6270 nM; at CYP1A2, more than 10000 nM; at CYP3A4 [2], 9.5 nM; at CYP2D6, 3200 nM.
For the compound `CC(C)NC(=O)N1CCCC1c1cccc(-c2cncn2CCc2ccc(F)cc2)c1` (stereo not drawn) [Compound 50, 2-(3-(1-(4-fluorophenethyl)-1H-imidazol-5-yl)phenyl)-N-isopropyl-pyrrolidine-1-carboxamide], the IC50 was 2070 nM at CYP2C19 (setting [3]); 14.2 nM at CYP3A4 [1]; 4180 nM at CYP2C9 (setting [4]); 5750 nM at CYP1A2; 9.4 nM on CYP3A4 [2]; not below 10000 nM on CYP2D6.
In the case of `C[C@@H](NS(=O)(=O)c1cnc(N2CCN3C[C@H](O)C[C@H]3C2)s1)c1ccccc1-c1cncn1CCc1ccc(F)cc1` [Compound 6a, N-((R)-1-(2-(1-(4-fluorophenethyl)-1H-imidazol-5-yl)phenyl)ethyl)-2-((7R,8aS)-7-hydroxy-hexahydro-pyrrolo[1,2-a]pyrazin-2(1H)-yl)thiazole-5-sulfonamide], the IC50 against CYP2C19 (CYP IC50 (nM) 2C19, 30 μM mephenytoin) is 8700 nM; at CYP3A4 [1], 8.6 nM; at CYP2C9 (CYP IC50 (nM) 2C9, 5 μM diclofenac), 4550 nM; on CYP1A2, more than 10000 nM; on CYP3A4 [2], 7.5 nM; on CYP2D6, 2540 nM.
Consider `Fc1ccc(CCn2cncc2-c2ccccc2C2CCCN2)cc1` (stereo not drawn) [Compound 40, 1-(4-fluorophenethyl)-5-(2-(pyrrolidin-2-yl)phenyl)-1H-imidazole], for which the IC50 at CYP2C19 (setting [3]) is more than 10000 nM; at CYP3A4 [1], 27.4 nM; at CYP2C9 (setting [4]), 4560 nM; at CYP1A2 it was more than 10000 nM; on CYP3A4 [2] it was 43.4 nM; on CYP2D6 it was 3300 nM.
Turning to `O=S(=O)(c1cnc(N2CCN3C[C@H](O)C[C@H]3C2)s1)N1CCCC1c1ccccc1-c1cncn1CCc1ccc(F)cc1` (single isomer, unassigned) [Compound 22a, (7R,8aS)-2-(5-(((R or S)-2-(2-(1-(4-fluoro-phenethyl)-1H-imidazol-5-yl)phenyl)pyrrolidin-1-yl)sulfonyl)thiazol-2-yl) octahydro-pyrrolo[1,2-a] pyrazin-7-ol], the IC50 on CYP2C19 (setting [3]) is more than 10000 nM; at CYP3A4 [1], 1.4 nM; on CYP2C9 (setting [4]) it was 6300 nM; at CYP1A2 it was 7020 nM; on CYP3A4 [2], 5.3 nM; at CYP2D6, 3940 nM.
With `O=S(=O)(c1cnc(N2CCN3C[C@H](O)C[C@H]3C2)s1)N1CCc2c(cccc2-c2cncn2CCc2ccc(F)cc2)C1` [Compound 64, (7R,8aS)-2-(5-((5-(1-(4-fluorophenethyl)-1H-imidazol-5-yl)-3,4-dihydroisoquinolin-2(1H)-yl)sulfonyl)thiazol-2-yl)octahydro-pyrrolo[1,2-a] pyrazin-7-ol], the IC50 at CYP2C19 (setting [3]) was 4230 nM; on CYP3A4 [1], 1.6 nM; on CYP2C9 (setting [4]), 3550 nM; on CYP1A2, more than 10000 nM; at CYP3A4 [2] it was 4.7 nM; at CYP2D6, 3130 nM.
For `O=C(c1cccnc1)N1CCCC1c1cccc(-c2cncn2CCc2ccc(F)cc2)c1` (single isomer, unassigned) [Compound 48b, (R or S)-(2-(3-(1-(4-fluorophenethyl)-1H-imidazol-5-yl)phenyl)pyrrolidin-1-yl) (pyridin-3-yl) methanone], the IC50 on CYP2C19 (setting [3]) was 4800 nM; on CYP3A4 [1], more than 100 nM; at CYP2C9 (setting [4]), 9840 nM; on CYP1A2, more than 10000 nM; on CYP3A4 [2], 41.2 nM; at CYP2D6 it was 3880 nM.
Regarding `CC(c1ccccc1-c1cncn1CCc1ccc(F)cc1)N(C)S(=O)(=O)c1cnc(N2CCN(C)CC2)s1` (stereo not drawn) [Compound 4, N-(1-(2-(1-(4-fluorophenethyl)-1H-imidazol-5-yl)phenyl)ethyl)-N-methyl-2-(4-methylpiperazin-1-yl)thiazole-5-sulfonamide], the IC50 is 6700 nM at CYP2C19 (setting [3]); 9 nM at CYP3A4 [1]; 2200 nM on CYP2C9 (setting [4]); more than 10000 nM on CYP1A2; 12 nM at CYP3A4 [2]; 5110 nM on CYP2D6.
As for `O=C(NCc1ccc(S(=O)(=O)N2CCCC2c2cccc(-c3cncn3CCc3ccc(F)cc3)c2)s1)c1ccccc1` (single isomer, unassigned) [Compound 55a, (R or S)-N-((5-((2-(3-(1-(4-fluorophenethyl)-1H-imidazol-5-yl)phenyl)pyrrolidin-1-yl)sulfonyl)thiophen-2-yl)methyl) benzamide], the IC50 stood at 219 nM at CYP2C19 (setting [3]); 0.84 nM on CYP3A4 [1]; 61.6 nM on CYP2C9 (setting [4]); 1080 nM at CYP1A2; 6.63 nM at CYP3A4 [2]; 139 nM on CYP2D6.
Regarding `CN1CCN(c2ncc(S(=O)(=O)N3CCc4c(cccc4-c4cncn4CCc4ccc(F)cc4)C3)s2)CC1` [Compound 58, 5-((5-(1-(4-fluorophenethyl)-1H-imidazol-5-yl)-3,4-dihydroisoquinolin-2(1H)-yl)sulfonyl)-2-(4-methylpiperazin-1-yl)thiazole], the IC50 at CYP2C19 (setting [3]) is 2830 nM; at CYP3A4 [1] it was 1.9 nM; on CYP2C9 (setting [4]), 1350 nM; on CYP1A2 it was more than 10000 nM; at CYP3A4 [2] it was 4.5 nM; at CYP2D6, 2170 nM.
For the compound `CC(=O)Nc1ncc(S(=O)(=O)N2CCCC2c2ccccc2-c2cncn2C)s1` (stereo not drawn) [Compound 30, N-(5-((2-(2-(1-methyl-1H-imidazol-5-yl)phenyl)pyrrolidin-1-yl)sulfonyl)thiazol-2-yl) acetamide], the IC50 on CYP2C19 (setting [3]) was more than 10000 nM; at CYP3A4 [1], 37.7 nM; on CYP2C9 (setting [4]) it was more than 10000 nM; on CYP1A2 it was more than 10000 nM; at CYP3A4 [2], 18.8 nM; on CYP2D6 it was more than 10000 nM.
As to `COCCN(C)c1ccc(S(=O)(=O)N2CCc3c(cccc3-c3cncn3CCc3ccc(F)cc3)C2)cn1` [Compound 62, 5-((5-(1-(4-fluorophenethyl)-1H-imidazol-5-yl)-3,4-dihydroisoquinolin-2(1H)-yl)sulfonyl)-N-(2-methoxy-ethyl)-N-methylpyridin-2-amine], the IC50 on CYP2C19 (setting [3]) is 238 nM; at CYP3A4 [1] it was 1.3 nM; on CYP2C9 (setting [4]), 575 nM; on CYP1A2, more than 10000 nM; on CYP3A4 [2], 5.2 nM; at CYP2D6 it was 2720 nM.
As to `CC(NS(=O)(=O)c1cnc(N2CCN(C)CC2)s1)c1ccc(-c2cncn2CCc2ccc(F)cc2)cc1` (stereo not drawn) [Compound 3, N-(1-(4-(1-(4-fluorophenethyl)-1H-imidazol-5-yl)phenyl)ethyl)-2-(4-methylpiperazin-1-yl)thiazole-5-sulfonamide], the concentration for half-maximal inhibition (IC50) on CYP2C19 (setting [3]) is more than 10000 nM; at CYP3A4 [1], 14 nM; on CYP2C9 (setting [4]), 4300 nM; on CYP1A2, more than 10000 nM; on CYP3A4 [2], 22 nM; on CYP2D6, 2530 nM.
